Laboratory results published in article PMC6696115, “Characterization of Antimicrobial, Antioxidant, and Leishmanicidal Activities of Schiff Base Derivatives of 4-Aminoantipyrine” (Molecules, 2019).
Values after ≈ are worked out from the molar mass of the structure shown.

Assays:
[1] = test system: Aspergillus niger ATCC 6275; assay: antimicrobial serial microdilution, A. niger; format: cell-based; conditions: Aspergillus niger, ATCC6275; serial microdilution, 96-well plates, 35 °C, 48 h, max 2% DMSO
Description: (§1) The in vitro antifungal and antimicrobial activities were determined by testing the Schiff bases against the fungi Saccharomyces cerevisiae, Candida albicans, and Aspergillus niger and the bacteria Staphylococcus aureus, Enterococcus faecalis (Gram-positive), Pseudomonas aeruginosa, and Escherichia coli (Gram-negative).
(§2) The bacterial inoculum was prepared by emulsifying overnight colonies from an agar medium in broth (Mueller–Hinton broth). The suspensions were adjusted to a final organism density of 5 × 10^5 colony former units (cfu)/mL. […] The emulsifying of A. niger cultures was done by pouring 5 mL of saline and 0.1% of polysorbate 80 over the Petri dishes. Then, 100 µL of this suspension were diluted in 5 mL of saline and adjusted to an optical density of 0.1 at 530 nm. For S. cerevisiae, fresh exponential YPAD (yeast extract 1%, peptone 2%, adenine 0.004%, […]) cultures were adjusted to an optical density of 0.5 at 600 nm, and then diluted to the equivalent of 1 × 10^4 cells/mL (10^−3 dilution). Stock solutions of Schiff bases were prepared by dissolving them in DMSO at 10 mg/mL. […] The range of concentrations used was empirically selected for each organisms and the Schiff base. Drug sensitivities were assayed by serial dilutions in 96-well plates as previously described. A row with media and cells but without drug was the positive control. The blank was done by preparing a row with media and drugs, but without cells. Plates were fitted with a tight lid before incubation to prevent desiccation. […] The minimum bactericidal concentration (MBC) and fungicidal concentration (MFC) were determined by spreading 100 µL of culture from each well onto a plate (Mueller–Hinton agar for bacteria, Sabouraud dextrose agar for fungi except S. cerevisiae, and YPAD for S. cerevisiae).

[2] = test system: Candida albicans ATCC 10231; assay: antimicrobial serial microdilution, C. albicans; format: cell-based; conditions: serial microdilution, 35 °C, 48 h
Description: as §1, §2

[3] = test system: S. cerevisiae (backgrounds W303 and BY4741); assay: antimicrobial serial microdilution, S. cerevisiae; format: cell-based, Saccharomyces cerevisiae; conditions: Saccharomyces cerevisiae; serial microdilution, 35 °C, 48 h; read-out: MIC S. cerevisiae
Description: as §1, §2

[4] = test system: Staphylococcus aureus ATCC 29213; assay: antimicrobial serial microdilution, S. aureus; format: cell-based; conditions: Staphylococcus aureus, ATCC29213; serial microdilution, 37 °C, 24 h
Description: as §1, §2

[5] = test system: promastigotes from L. mexicana (M379); assay: leishmanicidal activity, MTT colorimetric assay; format: cell-based; conditions: Leishmania mexicana, 48 h exposure, 1% DMSO
Description: Leishmanicidal activities of all Schiff bases were evaluated by measuring promastigote mitochondrial activity using MTT colorimetric assay as described previously. […] The medium was renewed every four days. Parasite density was determined in a Neubauer chamber.
Into each well of a 96-well cell culture dish was dispensed 1 × 10^6 parasites. A stock solution of each of the Schiff Base was prepared in DMSO, and serial dilutions were added to the parasite suspension, keeping the solvent concentration at 1%. The final volume was 100 µL for each well and triplicate conditions were carried out. Pentamidine treatment (100 µg/mL) and untreated parasites were used as positive control and negative control, respectively. After exposure to the compounds for 48 h in culture medium, 10 µL of a solution of 5 mg/mL MTT dissolved in PBS was added to each well. […] Later, the plate was centrifuged at 4400 rpm for 10 min and the culture medium was then aspirated. Next, 100 µL of DMSO were added into each well to solubilize the formazan and the plate was shaken for 5 min. The colored formazan salt was measured by recording changes in absorbance at 570 nm using a microplate reader, a BioTek Synergy HT spectrophotometer. A reference wavelength of 630 nm was used to subtract background. Optical densities were analyzed as the quantity of formazan is directly proportional to the number of viable parasites. Data were analyzed with the statistical software GraphPad Prism.

[6] = DPPH radical scavenging assay; format: biochemical; conditions: statement in words
Description: This was used immediately. The experimental procedure was adapted from the literature. Briefly, in a 96-well plate, 100 µL of solution of DPPH (2, 2-diphenyl-1-picrylhydrazyl) radical (0.2 mM in methanol) was added to 100 µL of methanolic solutions of 3a–j, 4, or 5, prepared as serial two-fold dilutions from the stock solution. Standards were also prepared in the same concentrations.
The percentage of DPPH scavenging was then calculated by using the following formula: % DPPH scavenging=100∗Asample+DPPH−Asample blank/ADPPH−Asolvent

[7] = test system: S. cerevisiae wild-type (W303 and BY4741 backgrounds); assay: drop test, wild-type yeast; format: cell-based, Saccharomyces cerevisiae; conditions: 200 µg/mL, 48 h, 25 °C
Description: Since the Schiff bases have a limited solubility in dimethyl sulfoxide (DMSO), first, we tested the toxicity of DMSO against the selected microorganism. […] Wild-type cells from W303 background seem to be more resistant, and sensitivity is observed at around 4% DMSO.
Next, we wanted to evaluate the oxidative activity. To do this, drop test assays were performed with wild-type (W303 and BY4741 backgrounds) and sod1 (BY4741 background) yeast cells in the presence of 200 µg/mL of the analyzed Schiff bases (Figure 3). The SOD1 gene encodes superoxide dismutase 1, an enzyme with a major role in detoxifying ROS species generated during metabolism or because of environmental exposure. sod1 mutant cells are unprotected against oxidative agents, decreasing survival in their presence. […] Also, wild-type cells are shown as control, unaffected by the Schiff bases.
For the drop test with S. cerevisiae, wild-type strain (background W303), and wild type and sod1 mutant cells (background BY4741) were grown overnight in YPAD media until an optical density of 0.5 at 600 nm was reached (equivalent to 1 × 10^7 cells/mL). Three serial dilutions were prepared and 5 µL of each was spotted onto a plate (approximately 1 × 10^5, 1 × 10^4, 1 × 10^3, and 1 × 10^2 cells/spot). YPAD plates were supplemented with 200 µg/mL of each Schiff base, and one plate supplemented with 2% DMSO and one plate with YPAD without any drug were used as controls. Plates were incubated at 25 °C for 24, 48, and 72 h.

RAW 264.7 cells = assay: cell viability, MTT dye assay; format: cell-based, murine; conditions: RAW 264.7, exposure to 400 µM, 48 h
Description: The specificity and selectivity for the pathogen target is a key point for any potential drug.
The medium was renewed once a week. The viability was determined using MTT (thiazolyl blue tetrazolium bromide) dye assay as described previously for leishmanicidal activity assessment, with some variations. Here, 5 × 10^4 cells/well in a final volume of 100 µL were deposited into a 96-well plate in triplicate. Saponin (2 and 4 mg/mL) and untreated cells were used as the positive control and negative control, respectively. Schiff bases were dissolved in DMSO to obtain different serial concentrations (0.01–2000 µM). […] Cells were pelleted by centrifugation at 4400 rpm for 10 minutes and the media was removed. Next, 100 µL/well of DMSO were added and the absorbance at 570 nm was recorded. A reference wavelength of 630 nm was used for background subtraction.

## Cc1c(N=Cc2ccccc2O)c(=O)n(-c2ccccc2)n1C [Compound 3b, 4-(2-Hydroxybenzylideneamino)-1,5-dimethyl-2-phenyl-1H-pyrazol-3(2H)-one]
[1]
  MIC: > 200 µg/mL
[2]; Candida albicans, ATCC10231
  IC50: 5.8 µg/mL (≈ 18.9 µM)
  MIC: 13.2 ± 1.6 µg/mL (≈ 42.9 µM)
[2]; noninhibitory concentration
  NIC C. albicans: 3.0 ± 2.2 µg/mL
[3]
  MIC: > 200 µg/mL
[4]
  MIC: > 200 µg/mL
[5]
  IC50: > 200 µM
[6]
  antioxidant activity detected in the DPPH assay: no significant antioxidant activity
[7]
  effect on wild-type cells in drop test: unaffected
RAW 264.7 cells
  % Live Cells: 19.3 ± 0.2%
